This is an account of results in patent US11702418B2, “SOS1 inhibitors” (priority 2019, dated 2023).

Structures can show the parent of a compound that is named as a salt. Where two headings read alike, the source gives them in different places.

One test deals with pERK in MKN1 cells. Put plainly: cells. The following applies: Homo sapiens. The test is classed as cell-based.
The target in test [1] is recombinant human SOS1 polypeptide (amino acids 560-1049) (Homo sapiens (Human), UniProt Q07889). Put plainly: biochemical. The test is classed as binding.
Sequence of recombinant human SOS1 polypeptide (amino acids 560-1049) (Q07889 560-1049): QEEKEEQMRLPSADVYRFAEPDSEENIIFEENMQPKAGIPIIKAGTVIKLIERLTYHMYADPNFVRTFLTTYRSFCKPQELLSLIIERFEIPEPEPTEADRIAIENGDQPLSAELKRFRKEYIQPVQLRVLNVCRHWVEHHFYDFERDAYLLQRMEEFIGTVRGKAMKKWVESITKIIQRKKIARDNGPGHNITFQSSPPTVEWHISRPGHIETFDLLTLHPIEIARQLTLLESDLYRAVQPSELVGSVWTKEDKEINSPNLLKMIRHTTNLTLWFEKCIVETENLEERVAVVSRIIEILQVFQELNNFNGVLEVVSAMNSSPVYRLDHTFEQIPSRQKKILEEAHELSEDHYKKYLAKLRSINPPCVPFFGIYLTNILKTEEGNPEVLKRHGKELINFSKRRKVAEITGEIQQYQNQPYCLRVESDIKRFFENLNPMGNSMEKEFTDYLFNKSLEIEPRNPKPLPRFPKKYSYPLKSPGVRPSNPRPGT
Procedure: The ability of a compound of Formula (I) to bind to SOS1 was measured using a HTRF displacement assay. […] After a 1-hour incubation at room temperature, the HTRF signal was measured using Clairostar plate reader (BMG Labtech) according to the manufacturer's instructions. Excitation filter EX-TR was used, and emission 1 was detected at 650-610 nm and emission 2 detected at 620-610 nm. The HTRF ratio was calculated using the formula: [emission 1/emission 2]*10000.
Background signals were calculated from well with a 10 μM inhibitor, known to inhibit 100% at that concentration. The background subtracted signals were converted to % binding relative to DMSO controls. Data were analyzed using XLFIT software (IDBS) using a Morrison equation for competitive binding and Ki's were generated compound of Formula (I).
Where [2] appears, read: MKN-1, pERK inhibition, In-Cell Western, MKN1 or H358 cells (Table 24 does not say which), 0.5-1 hour incubation, read-out: IC50.
Setting [3] is: HTRF displacement, Cy5 labelled tracer, Morrison equation for competitive binding, read-out: Ki, Inhibition of Labeled Tracer Binding to SOS1.
Where [4] appears, read: read-out: Ki, Inhibition of Labeled Tracer Binding to SOS1.

In general, IC50 refers to the point on the concentration scale where inhibition reaches its midpoint. The Ki is a dissociation constant, usually derived from enzyme kinetics or from competition with a known ligand. Take `Cc1nnc(N[C@H](C)c2ccc(F)cc2F)c2cc(N3CC(C)(O)C3)ncc12` [Example 12-47]: the IC50 with pERK in MKN1 cells (setting [2]) was determined as 307 nM. In addition, in test [1] (setting [3]), the Ki came out at 38.7 nM.

As for `Cc1nnc(N[C@H](C)c2cc(N)cc(C(F)(F)F)n2)c2cc(N3CC(C)(N(C)C)C3)ccc12` [Example 16-9, (R)-N-(1-(4-amino-6-(trifluoromethyl)pyridin-2-yl)ethyl)-7-(3-(dimethylamino)-3-methylazetidin-1-yl)-4-methylphthalazin-1-amine], the IC50 in the test with pERK in MKN1 cells (setting [2]) is 643 nM. Also, the Ki in test [1] (setting [3]) came to 35.6 nM.

Turning to `Cc1nnc(N[C@H](C)c2cccc(C(F)(F)C(C)(C)O)c2F)c2cc(N3CCN4CCOC[C@@H]4C3)ncc12` [Example 20-2, 1,1-difluoro-1-(2-fluoro-3-((R)-1-((7-((S)-hexahydropyrazino[2,1-c][1,4]oxazin-8(1H)-yl)-4-methylpyrido[3,4-d]pyridazin-1-yl)amino)ethyl)phenyl)-2-methylpropan-2-ol], the IC50 in the test on pERK in MKN1 cells (setting [2]) is 8 nM. For the same compound, in test [1] (setting [3]), the Ki worked out at 0.75 nM.

Regarding `Cc1c(C#N)cccc1[C@@H](C)Nc1nnc(C)c2cnc(N3CCN4CCOC[C@@H]4C3)cc12` [Example 12-27], the half-maximal inhibitory concentration (IC50) in the test on pERK in MKN1 cells (setting [2]) is 14 nM. The inhibition constant (Ki) in test [1] (setting [3]) came out at 2.81 nM.

As for `Cc1c([C@@H](C)Nc2nnc(C)c3cnc(N4CC5(CCN(C)C5)C4)cc23)cccc1C(F)(F)F` [Example 12-17], the IC50 with pERK in MKN1 cells (setting [2]) came out at 17 nM. The Ki in test [1] (setting [3]) is 0.46 nM.

As to `Cc1c([C@@H](C)Nc2nncc3ccc(N4CC(=O)N(C)CC4C)cc23)cccc1C(F)(F)F` (stereo partly drawn) [Example 1-26, 1,5-dimethyl-4-(4-(((R)-1-(2-methyl-3-(trifluoromethyl)phenyl)ethyl)amino)phthalazin-6-yl)piperazin-2-one], the IC50 with pERK in MKN1 cells (setting [2]) is 57 nM. Moreover, the Ki in test [1] (setting [3]) was 1.16 nM.

`Cc1c([C@@H](C)Nc2nnc(C)c3ccc(N4CCC(N5CCC(F)(F)C5)CC4)cc23)cccc1C(F)(F)F` [Example 10-49, (R)-7-(4-(3,3-difluoropyrrolidin-1-yl)piperidin-1-yl)-4-methyl-N-(1-(2-methyl-3-(trifluoromethyl)phenyl)ethyl)phthalazin-1-amine Formate salt] showed an IC50 in the test on pERK in MKN1 cells (MKN-1) of 107 nM. Further, the Ki in test [1] (setting [4]) is 0.56 nM.

In the case of `Cc1nnc(N[C@H](C)c2cc(N)cc(C(F)(F)F)c2)c2cc(O[C@H]3CCOC3)ccc12` [Example 15-1, N—((R)-1-(3-amino-5-(trifluoromethyl)phenyl)ethyl)-4-methyl-7-(((S)-tetrahydrofuran-3-yl)oxy)phthalazin-1-amine], the IC50 in the test on pERK in MKN1 cells (setting [2]) was found to be 28 nM. The Ki in test [1] (setting [3]) came out at 3.37 nM.

Regarding `Cc1c([C@@H](C)Nc2nnc(C)c3ccc(N4CCOCC4)cc23)cc(F)cc1C(F)(F)F` [Example 21-8, (R)—N-(1-(5-fluoro-2-methyl-3-(trifluoromethyl)phenyl)ethyl)-4-methyl-7-morpholinophthalazin-1-amine], the IC50 with pERK in MKN1 cells (setting [2]) came to 90 nM. Besides, the Ki in test [1] (setting [3]) worked out at 3.17 nM.

As for `Cc1c([C@@H](C)Nc2nnc(C)c3cnc(N4CCC4)cc23)cccc1C(F)(F)F` [Example 12-38], the IC50 with pERK in MKN1 cells (setting [2]) came to 97 nM. For the same compound, the inhibitory constant (Ki) in test [1] (setting [3]) amounted to 1.29 nM.

`Cc1c([C@@H](C)Nc2nnc(C)c3cnc(N4C[C@H]5CC[C@@H]4CN5C)cc23)cccc1C(F)(F)F` [Example 12-26]: the IC50 in the test with pERK in MKN1 cells (setting [2]) came to 27 nM. Also, the inhibitory constant (Ki) in test [1] (setting [3]) is 0.45 nM.

As for `Cc1nnc(N[C@H](C)c2cccc(F)c2F)c2cc(N3CCN4CCOC[C@@H]4C3)ncc12` [Example 12-75], the IC50 with pERK in MKN1 cells (setting [2]) was 87 nM. Besides, the Ki in test [1] (setting [3]) was found to be 14 nM.

Consider `Cc1nnc(N[C@H](C)c2cccc(F)c2Cl)c2cc(N3CC(C)(O)C3)ncc12` [Example 12-80], for which, in the test on pERK in MKN1 cells (setting [2]), the IC50 is 295 nM. For the same compound, the Ki in test [1] (setting [3]) turned out to be 37.4 nM.

Regarding `Cc1nnc(N[C@H](C)c2cccc(C(F)(F)F)c2F)c2cc(N3CCC(N(C)C)CC3)ncc12` [Example 12-64], the IC50 in the test on pERK in MKN1 cells (setting [2]) was found to be 29 nM. Further, in test [1] (setting [3]), the Ki turned out to be 0.51 nM.

As to `Cc1nnc(N[C@H](C)c2cc(N)c(F)c(C(F)(F)F)c2)c2cc(N3C[C@H]4C[C@@H]3CO4)ccc12` [Example 16-14, N-((R)-1-(3-amino-4-fluoro-5-(trifluoromethyl)phenyl)ethyl)-7-((1R,4R)-2-oxa-5-azabicyclo[2.2.1]heptan-5-yl)-4-methylphthalazin-1-amine], in the test with pERK in MKN1 cells (setting [2]), the IC50 stood at 37 nM. The Ki in test [1] (setting [3]) worked out at 1.71 nM.

For the compound `Cc1c([C@@H](C)Nc2nnc(C)c3cnc(N4CCC(N(C)C)CC4)cc23)cccc1C(F)(F)F` [Example 12-15], the IC50 with pERK in MKN1 cells (setting [2]) was 17 nM. Further, the Ki in test [1] (setting [3]) turned out to be 0.25 nM.

For the compound `Cc1c(C#N)cccc1[C@@H](C)Nc1nnc(C)c2cnc(N3CC4(COCCN4C)C3)cc12` [Example 12-72], the IC50 with pERK in MKN1 cells (setting [2]) was determined as 19 nM. Further, in test [1] (setting [3]), the Ki is 4.39 nM.

For `Cc1c([C@@H](C)Nc2nncc3ccc(N4CCN(C)C(CF)C4)cc23)cccc1C(F)(F)F` (stereo partly drawn) [Example 1-43, 7-(3-(fluoromethyl)-4-methylpiperazin-1-yl)-N-((R)-1-(2-methyl-3-(trifluoromethyl)phenyl)ethyl)phthalazin-1-amine], the IC50 in the test with pERK in MKN1 cells (setting [2]) is 216 nM. The Ki in test [1] (setting [3]) came out at 1.36 nM.

The compound `Cc1c(C(F)F)cccc1[C@@H](C)Nc1nnc(C)c2ccc(N3CCOCC3)cc12` [Example 10-65, (R)-N-(1-(3-(difluoromethyl)-2-methylphenyl)ethyl)-4-methyl-7-morpholinophthalazin-1-amine Hydrochloride salt] displayed an IC50 with pERK in MKN1 cells (MKN-1) of 23 nM. Moreover, the Ki in test [1] (setting [4]) is 0.95 nM.

In the case of `Cc1c([C@@H](C)Nc2nnc(C)c3ccc(N4CCOCC4)cc23)cc(N)cc1C(F)(F)F` [Example 15-2, (R)—N-(1-(5-amino-2-methyl-3-(trifluoromethyl)phenyl)ethyl)-4-methyl-7-morpholinophthalazin-1-amine], the IC50 in the test on pERK in MKN1 cells (MKN-1, pERK inhibition, In-Cell Western, MKN1 or H358 cells (Table 24 does not say which), 0.5-1 hour incubation) worked out at 8 nM. The Ki in test [1] was 0.42 nM.

Consider `Cc1c(F)cccc1[C@@H](C)Nc1nnc(C)c2cnc(N3CC(C)(N(C)C)C3)cc12` [Example 12-82], for which the IC50 in the test on pERK in MKN1 cells (setting [2]) came out at 330 nM. Moreover, the Ki in test [1] (setting [3]) turned out to be 20.9 nM.

Consider `Cc1c([C@@H](C)Nc2nncc3ccc(O[C@H]4CC[C@H](N(C)C)C4)cc23)cccc1C(F)(F)F` [Example 2-11, 7-(((trans)-3-(dimethylamino)cyclopentyl)oxy)-N-((R)-1-(2-methyl-3-(trifluoromethyl)phenyl)ethyl)phthalazin-1-amine], for which the IC50 with pERK in MKN1 cells (setting [2]) worked out at 243 nM. In test [1] (setting [3]), the Ki is 2.83 nM.

As for `Cc1c([C@@H](C)Nc2nncc3ccc(OC4CCN(C)C4(C)C)cc23)cccc1C(F)(F)F` (stereo partly drawn) [Example 2-5, N-((R)-1-(2-methyl-3-(trifluoromethyl)phenyl)ethyl)-7-((1,2,2-trimethylpyrrolidin-3-yl)oxy)phthalazin-1-amine], the half-inhibitory concentration (IC50) with pERK in MKN1 cells (setting [2]) came to 82 nM. The Ki in test [1] (setting [3]) worked out at 1.78 nM.

Consider `Cc1c(C#N)cccc1[C@@H](C)Nc1nnc(C)c2ccc(N3CCN4CCOC[C@@H]4C3)cc12` [Example 10-56, 3-((R)-1-((7-((S)-hexahydropyrazino[2,1-c][1,4]oxazin-8(1H)-yl)-4-methylphthalazin-1-yl)amino)ethyl)-2-methylbenzonitrile Formate salt], for which 26 nM corresponded to half-maximal inhibition with pERK in MKN1 cells (MKN-1) (IC50). Moreover, the Ki in test [1] (setting [4]) worked out at 1.59 nM.

Regarding `Cc1c([C@@H](C)Nc2nnc(C)c3cnc(N4CC5(CCNC5=O)C4)cc23)cccc1C(F)(F)F` [Example 12-32], the 50% inhibitory concentration (IC50) with pERK in MKN1 cells (setting [2]) came to 18 nM. In test [1] (setting [3]), the Ki came out at 0.97 nM.

Take `Cc1c([C@@H](C)Nc2nnc(C)c3ccc(-n4cc5c(n4)CNC5)cc23)cccc1C(F)(F)F` [Example 10-16, (R)-7-(5,6-dihydropyrrolo[3,4-c]pyrazol-2(4H)-yl)-4-methyl-N-(1-(2-methyl-3-(trifluoromethyl)phenyl)ethyl)phthalazin-1-amine]: the IC50 in the test on pERK in MKN1 cells (setting [2]) is 325 nM. Moreover, in test [1] (setting [3]), the inhibitory constant (Ki) stood at 7.75 nM.

As for `Cc1c(C#N)cccc1[C@@H](C)Nc1nnc(C)c2ccc(N3CC4(COCCN4C)C3)cc12` [Example 10-79, (R)-2-methyl-3-(1-((4-methyl-7-(5-methyl-8-oxa-2,5-diazaspiro[3.5]nonan-2-yl)phthalazin-1-yl)amino)ethyl)benzonitrile Formate salt], the IC50 in the test on pERK in MKN1 cells (MKN-1) is 16 nM. Further, in test [1] (setting [4]), the Ki was found to be 4.15 nM.

As to `Cc1c([C@@H](C)Nc2nnc(C)c3cnc(N4CC(O)C4)cc23)cccc1C(F)(F)F` [Example 12-22], the IC50 in the test on pERK in MKN1 cells (setting [2]) came out at 89 nM. Also, the Ki in test [1] (setting [3]) worked out at 1.24 nM.

Turning to `Cc1cccc([C@@H](C)Nc2nnc(C)c3cnc(N4CCN5CCOC[C@@H]5C4)cc23)c1F` [Example 12-131], the IC50 in the test with pERK in MKN1 cells (setting [2]) worked out at 28 nM. Further, in test [1] (setting [3]), the Ki worked out at 3.6 nM.

With `Cc1nnc(N[C@H](C)c2cccc(C(F)F)c2F)c2cc(N3C[C@H]4C[C@@H]3CO4)ccc12` [Example 10-85, 7-((1R,4R)-2-oxa-5-azabicyclo[2.2.1]heptan-5-yl)-N-((R)-1-(3-(difluoromethyl)-2-fluorophenyl)ethyl)-4-methylphthalazin-1-amine], the IC50 with pERK in MKN1 cells (setting [2]) came out at 18 nM. Besides, the Ki in test [1] (setting [3]) turned out to be 0.78 nM.

As for `Cc1c(C#N)cc(F)cc1[C@@H](C)Nc1nnc(C)c2cnc(N3CCC(C)(N(C)C)CC3)cc12` [Example 12-104], the IC50 with pERK in MKN1 cells (setting [2]) worked out at 92 nM. In test [1] (setting [3]), the Ki amounted to 6.1 nM.

Regarding `CCN1CCN(c2cc3c(N[C@H](C)c4cccc(C#N)c4C)nnc(C)c3cn2)CC1` [Example 12-52], the IC50 in the test on pERK in MKN1 cells (setting [2]) is 60 nM. The Ki in test [1] (setting [3]) was determined as 1.06 nM.

Take `Cc1c([C@@H](C)Nc2nncc3ccc(N4CCn5ncnc5C4)cc23)cccc1C(F)(F)F` [Example 1-25, (R)-7-(5,6-dihydro-[1,2,4]triazolo[1,5-a]pyrazin-7(8H)-yl)-N-(1-(2-methyl-3-(trifluoromethyl)phenyl)ethyl)phthalazin-1-amine]: in the test with pERK in MKN1 cells (setting [2]), the IC50 worked out at 47 nM. Also, the Ki in test [1] (setting [3]) was 0.95 nM.
